Test results: patent US20250064941A1, “SIGLEC LIGANDS, CONJUGATES, AND METHODS OF USE THEREOF” (Osprey Biopharmaceuticals, Inc., priority 2023, published 2025)

Key:
[1] = molecular target: T1, mouse Siglec-2-Fc-Avi (CD22) (Mus musculus, UniProt P35329); experiment: SPR binding affinity to mouse CD22; settings: steady-state analysis
T1 construct: made in house
T1 sequence (P35329 22-708 limits assumed): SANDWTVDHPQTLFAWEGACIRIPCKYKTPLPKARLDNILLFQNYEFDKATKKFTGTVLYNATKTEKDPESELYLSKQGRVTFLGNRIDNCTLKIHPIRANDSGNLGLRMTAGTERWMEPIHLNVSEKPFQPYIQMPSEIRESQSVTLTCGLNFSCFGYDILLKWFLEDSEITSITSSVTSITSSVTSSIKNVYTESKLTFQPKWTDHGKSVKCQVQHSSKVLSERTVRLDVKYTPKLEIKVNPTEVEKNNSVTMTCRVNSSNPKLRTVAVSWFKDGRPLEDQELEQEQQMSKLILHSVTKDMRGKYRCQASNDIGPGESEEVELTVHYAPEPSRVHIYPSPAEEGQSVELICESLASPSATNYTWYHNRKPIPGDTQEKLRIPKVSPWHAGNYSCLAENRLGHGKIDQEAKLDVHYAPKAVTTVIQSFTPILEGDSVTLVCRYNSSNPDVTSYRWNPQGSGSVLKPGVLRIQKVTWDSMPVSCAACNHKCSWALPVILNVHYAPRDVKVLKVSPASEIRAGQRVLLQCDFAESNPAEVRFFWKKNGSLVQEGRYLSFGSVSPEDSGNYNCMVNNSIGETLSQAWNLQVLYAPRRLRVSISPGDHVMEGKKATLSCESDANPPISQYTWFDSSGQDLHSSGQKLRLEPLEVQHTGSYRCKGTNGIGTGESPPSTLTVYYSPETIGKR
Description: (§1) Prior to immobilization, CD22 proteins were treated with SialoExo (Genovis, Cat #G1-SM1-020) for 4 hours at 37° C. to remove native sialic acid residues.
(§2) Capture of biotinylated CD22 constructs was performed using a Cytiva SA chip (BR100398) on a Biacore 8K instrument.
(§3) Binding experiments of Siglec-ligand conjugated proteins or Siglec ligand compounds were performed on the surfaces prepared above in 10 mM HEPES, 150 mM NaCl, 0.05% Tween-20, pH 7.5, 1% DMSO as the running buffer. […] The compounds were then allowed to dissociate from the surface for 120 seconds. […] Solvent correction was performed using 0.5, 1, 1.5, and 2% DMSO spike into running buffer without DMSO. […] Data was analyzed using steady-state analysis in Biacore Insight Evaluation Software, version 3.0 for Siglec ligand compounds.

cynomolgus Siglec-2/CD22 = cynomolgus Siglec-2/CD22 (Macaca fascicularis, UniProt A0A2K5WCZ6); experiment: biochemical; type: binding; settings: SPR, steady-state analysis; read-out: Affinity cyno CD22
Description: as §1
Surface preparation for cyno CD22 protein consisted of amine coupling to Cytiva CM5 chip (Cytiva, Cat #BR100530) using the Cytiva amine coupling kit Type 2 (Cytiva, Cat #BR100633). Following the standard amine coupling protocols, EDC and NHS from the kit were mixed 1:1 and injected over flow cells 1 and 2. […] Any active carboxy groups were then capped with 1M Ethanolamine, pH 8.5 for 420s on flow cells 1 and 2.
as §3

[2] = molecular target: T2, human Siglec-2/CD22 protein (Homo sapiens, UniProt P20273); experiment: SPR binding affinity to human CD22; settings: steady-state analysis
T2 construct: purchased Acro Biosystems SI2-H82E3
T2 sequence (P20273 20-847): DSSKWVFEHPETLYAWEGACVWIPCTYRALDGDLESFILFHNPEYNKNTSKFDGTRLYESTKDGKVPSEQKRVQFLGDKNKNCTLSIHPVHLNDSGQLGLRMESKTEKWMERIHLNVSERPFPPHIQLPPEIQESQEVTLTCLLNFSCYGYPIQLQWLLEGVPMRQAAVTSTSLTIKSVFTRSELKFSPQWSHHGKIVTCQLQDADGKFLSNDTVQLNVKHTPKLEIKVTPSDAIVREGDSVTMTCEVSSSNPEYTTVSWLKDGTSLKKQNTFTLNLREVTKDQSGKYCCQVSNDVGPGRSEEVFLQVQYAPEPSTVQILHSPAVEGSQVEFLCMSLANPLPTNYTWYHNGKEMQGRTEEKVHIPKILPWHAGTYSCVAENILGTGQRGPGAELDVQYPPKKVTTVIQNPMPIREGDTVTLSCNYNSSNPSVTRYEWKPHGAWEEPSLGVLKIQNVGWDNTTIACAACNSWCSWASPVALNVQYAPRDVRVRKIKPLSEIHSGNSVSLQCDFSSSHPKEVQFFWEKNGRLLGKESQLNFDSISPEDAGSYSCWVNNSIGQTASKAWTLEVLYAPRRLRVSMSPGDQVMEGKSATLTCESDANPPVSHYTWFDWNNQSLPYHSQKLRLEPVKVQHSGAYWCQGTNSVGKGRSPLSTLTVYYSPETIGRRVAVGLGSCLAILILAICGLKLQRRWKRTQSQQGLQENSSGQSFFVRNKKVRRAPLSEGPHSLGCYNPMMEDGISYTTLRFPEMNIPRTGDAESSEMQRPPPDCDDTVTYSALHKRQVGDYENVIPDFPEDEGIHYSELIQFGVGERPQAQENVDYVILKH
Description: as §1, §2, §3

Sequence of cynomolgus Siglec-2/CD22 (A0A2K5WCZ6 entry or part of it): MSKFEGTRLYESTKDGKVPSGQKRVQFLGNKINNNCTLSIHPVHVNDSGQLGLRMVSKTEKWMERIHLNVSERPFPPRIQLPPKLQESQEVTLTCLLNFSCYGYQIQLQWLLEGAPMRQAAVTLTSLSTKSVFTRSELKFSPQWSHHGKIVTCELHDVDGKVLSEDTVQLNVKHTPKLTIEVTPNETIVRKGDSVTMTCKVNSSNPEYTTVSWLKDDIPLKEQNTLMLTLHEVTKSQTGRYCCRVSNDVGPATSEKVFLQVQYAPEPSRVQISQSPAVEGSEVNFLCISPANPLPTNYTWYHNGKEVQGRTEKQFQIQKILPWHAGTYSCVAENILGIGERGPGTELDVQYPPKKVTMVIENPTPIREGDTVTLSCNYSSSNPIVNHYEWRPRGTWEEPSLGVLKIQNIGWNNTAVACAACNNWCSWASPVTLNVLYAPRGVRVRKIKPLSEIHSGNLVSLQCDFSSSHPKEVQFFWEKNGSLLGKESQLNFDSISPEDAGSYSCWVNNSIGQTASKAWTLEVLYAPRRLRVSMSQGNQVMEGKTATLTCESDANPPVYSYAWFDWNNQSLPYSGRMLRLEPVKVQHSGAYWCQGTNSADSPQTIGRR

Row | SMILES | Kd [1] [nM] | Kd (cynomolgus Siglec-2/CD22) [nM] | Kd [2] [nM]
1 | CC(=O)NCCOCCOCCOCCOCCn1cc(CCCCCCO[C@]2(C(=O)O)C[C@H](O)[C@@H](NC(C)=O)[C@H]([C@H](O)[C@H](O)CNC(=O)c3cccc(Cl)c3)O2)nn1 [Compound 272, (2R,4S,5R,6R)-5-acetamido-6-((1R,2R)-3-(3-chlorobenzamido)-1,2-dihydroxypropyl)-4-hydroxy-2-((6-(1-(2-oxo-6,9,12,15-tetraoxa-3-azaheptadecan-17-yl)-1H-1,2,3-triazol-4-yl)hexyl)oxy)tetrahydro-2H-pyran-2-carboxylic acid] | > 10000 | 1000 to 10000 | 1000 to 10000
2 | C#CCOCCCCCCO[C@]1(C(=O)O)C[C@H](O)[C@@H](NC(=O)CNC)[C@H]([C@H](O)[C@H](O)CNC(=O)Cc2ccc(Cl)cc2)O1 [Compound 211] | < 1000 | < 1000 | < 1000
3 | CC(=O)NCCOCCOCCOCCOCCNC(=O)CCOCCO[C@]1(C(=O)O)C[C@H](O)[C@@H](NC(=O)CO)[C@H]([C@H](O)[C@H](O)CNC(=O)Cc2ccc(-c3ccccc3)cc2)O1 [Compound 238, (2R,4S,5R,6R)-6-((1R,2R)-3-(2-([1,1′-biphenyl]-4-yl)acetamido)-1,2-dihydroxypropyl)-2-((2,19-dioxo-6,9,12,15,22-pentaoxa-3,18-diazatetracosan-24-yl)oxy)-4-hydroxy-5-(2-hydroxyacetamido) tetrahydro-2H-pyran-2-carboxylic acid] | 1000 to 10000 | 1000 to 10000 | 1000 to 10000
4 | C#CCOCCCCCCO[C@]1(C(=O)O)C[C@H](O)[C@@H](NC(=O)C(N)=O)[C@H]([C@H](O)[C@H](O)CNC(=O)Cc2ccc(Cl)cc2)O1 [Compound 223, (2R,4S,5R,6R)-5-(2-amino-2-oxoacetamido)-6-((1R,2R)-3-(2-(4-chlorophenyl)acetamido)-1,2-dihydroxypropyl)-4-hydroxy-2-((6-(prop-2-yn-1-yloxy)hexyl)oxy)tetrahydro-2H-pyran-2-carboxylic acid] | 1000 to 10000 | 1000 to 10000 | < 1000
5 | C#CCOCCOCCO[C@]1(C(=O)O)C[C@H](O)[C@@H](NC(=O)CO)[C@H]([C@H](O)[C@H](O)CNC(=O)Cc2ccc(-c3cccc(O)c3)cc2)O1 [Compound 78, (2R,4S,5R,6R)-6-((1R,2R)-1,2-dihydroxy-3-(2-(3′-hydroxy-[1,1′-biphenyl]-4-yl)acetamido)propyl)-4-hydroxy-5-(2-hydroxyacetamido)-2-(2-(2-(prop-2-yn-1-yloxy)ethoxy)ethoxy)tetrahydro-2H-pyran-2-carboxylic acid] | 1000 to 10000 | 1000 to 10000 | < 1000
6 | C#CCCOc1ccc(CO[C@]2(C(=O)O)C[C@H](O)[C@@H](NC(=O)CO)[C@H]([C@H](O)[C@H](O)CNC(=O)Cc3cccc(Cl)c3)O2)cc1 [Compound 123, (2R,4S,5R,6R)-2-((4-(but-3-yn-1-yloxy)benzyl)oxy)-6-((1R,2R)-3-(2-(3-chlorophenyl)acetamido)-1,2-dihydroxypropyl)-4-hydroxy-5-(2-hydroxyacetamido)tetrahydro-2H-pyran-2-carboxylic acid] | 1000 to 10000 | < 1000 | < 1000
7 | C#CCOCCOCCO[C@]1(C(=O)O)C[C@H](O)[C@@H](NC(=O)CO)[C@H]([C@H](O)[C@H](O)CNC(=O)Cc2ccc3c(c2)NC(=O)C3)O1 [Compound 12, (2R,4S,5R,6R)-6-((1R,2R)-1,2-dihydroxy-3-(2-(2-oxoindolin-6-yl)acetamido)propyl)-4-hydroxy-5-(2-hydroxyacetamido)-2-(2-(2-(prop-2-yn-1-yloxy)ethoxy)ethoxy)tetrahydro-2H-pyran-2-carboxylic acid] |  | > 10000 | 1000 to 10000
8 | C#CCOCCOCCO[C@]1(C(=O)O)C[C@H](O)[C@@H](NC(=O)CO)[C@H]([C@H](O)[C@H](O)CNC(=O)Cc2ccc(-c3ccncc3)cc2)O1 [Compound 72, (2R,4S,5R,6R)-6-((1R,2R)-1,2-dihydroxy-3-(2-(4-(pyridin-4-yl)phenyl)acetamido)propyl)-4-hydroxy-5-(2-hydroxyacetamido)-2-(2-(2-(prop-2-yn-1-yloxy)ethoxy)ethoxy)tetrahydro-2H-pyran-2-carboxylic acid] |  | > 10000 | 1000 to 10000

The next lines start with the values.

Row | Kd [1] [nM] | Kd (cynomolgus Siglec-2/CD22) [nM] | Kd [2] [nM] | SMILES
9 | 1000 to 10000 | 1000 to 10000 | 1000 to 10000 | C#CCOCCCCCCO[C@]1(C(=O)O)C[C@H](O)[C@@H](NC(=O)CN)[C@H]([C@H](O)[C@H](O)CNC(=O)Cc2ccc(Cl)cc2)O1 [Compound 184, (2R,4S,5R,6R)-5-(2-aminoacetamido)-6-((1R,2R)-3-(2-(4-chlorophenyl)acetamido)-1,2-dihydroxypropyl)-4-hydroxy-2-((6-(prop-2-yn-1-yloxy)hexyl)oxy)tetrahydro-2H-pyran-2-carboxylic acid]
10 | > 10000 | 1000 to 10000 | 1000 to 10000 | C#CCOCCOCCO[C@]1(C(=O)O)C[C@H](O)[C@@H](NC(=O)CO)[C@H]([C@H](O)[C@H](O)CNC(=O)Cc2ccc(-c3cccc(C#N)c3)cc2)O1 [Compound 81, (2R,4S,5R,6R)-6-((1R,2R)-3-(2-(3′-cyano-[1,1′-biphenyl]-4-yl)acetamido)-1,2-dihydroxypropyl)-4-hydroxy-5-(2-hydroxyacetamido)-2-(2-(2-(prop-2-yn-1-yloxy)ethoxy)ethoxy)tetrahydro-2H-pyran-2-carboxylic acid]
11 | < 1000 | < 1000 | < 1000 | C#CCNc1c(NCCCCCCO[C@]2(C(=O)O)C[C@H](O)[C@@H](NC(=O)CO)[C@H]([C@H](O)[C@H](O)CNC(=O)Cc3ccc(Cl)cc3)O2)c(=O)c1=O [Compound 112, (2R,4S,5R,6R)-6-((1R,2R)-3-(2-(4-chlorophenyl)acetamido)-1,2-dihydroxypropyl)-2-((6-((3,4-dioxo-2-(prop-2-yn-1-ylamino)cyclobut-1-en-1-yl)amino)hexyl)oxy)-4-hydroxy-5-(2-hydroxyacetamido)tetrahydro-2H-pyran-2-carboxylic acid]
12 | < 1000 | < 1000 | < 1000 | C#CCCOc1ccc(CO[C@]2(C(=O)O)C[C@H](O)[C@@H](NC(=O)CO)[C@H]([C@H](O)[C@H](O)CNC(=O)Cc3ccc(-c4ccc(O)cc4)cc3)O2)cc1O [Compound 73, (2R,4S,5R,6R)-2-((4-(but-3-yn-1-yloxy)-3-hydroxybenzyl)oxy)-6-((1R,2R)-1,2-dihydroxy-3-(2-(4′-hydroxy-[1,1′-biphenyl]-4-yl)acetamido)propyl)-4-hydroxy-5-(2-hydroxyacetamido)tetrahydro-2H-pyran-2-carboxylic acid]
13 | < 1000 | 1000 to 10000 | 1000 to 10000 | C#CCOCCOCCO[C@]1(C(=O)O)C[C@H](O)[C@@H](NC(=O)CO)[C@H]([C@H](O)[C@H](O)CNC(=O)Cc2cccc(O)c2)O1 [Compound 152, (2R,4S,5R,6R)-6-((1R,2R)-1,2-dihydroxy-3-(2-(3-hydroxyphenyl)acetamido)propyl)-4-hydroxy-5-(2-hydroxyacetamido)-2-(2-(2-(prop-2-yn-1-yloxy)ethoxy)ethoxy)tetrahydro-2H-pyran-2-carboxylic acid]
